Reference: PubChem BioAssay (NCI)
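Values below derive from 48-hour exposures of cells grown in 96-well plates, with endpoints linearly interpolated between the two concentrations bracketing the appropriate inhibition level. GI50: concentration for 50% inhibition of growth. TGI marks complete inhibition of growth.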

What was measured:
Test in all cases: DTP human tumour cell line panel, 48 h
KM12 colon = system: KM12 colon
SF-295 CNS = system: SF-295 CNS
SK-OV-3 ovarian = system: SK-OV-3 ovarian
HOP-92 NSCLC = system: HOP-92 NSCLC
BT-549 breast = system: BT-549 breast
SNB-75 CNS = system: SNB-75 CNS
NCI/ADR-RES ovarian = system: NCI/ADR-RES ovarian
HCC-2998 colon = system: HCC-2998 colon
SK-MEL-28 melanoma = system: SK-MEL-28 melanoma
HOP-62 NSCLC = system: HOP-62 NSCLC
SF-539 CNS = system: SF-539 CNS
UO-31 renal = system: UO-31 renal
SK-MEL-5 melanoma = system: SK-MEL-5 melanoma
DU-145 prostate = system: DU-145 prostate
ACHN renal = system: ACHN renal
U251 CNS = system: U251 CNS
HT29 colon = system: HT29 colon
M14 melanoma = system: M14 melanoma
SF-268 CNS = system: SF-268 CNS
SW-620 colon = system: SW-620 colon
LOX IMVI melanoma = system: LOX IMVI melanoma
TK-10 renal = system: TK-10 renal
RXF 393 renal = system: RXF 393 renal
EKVX NSCLC = system: EKVX NSCLC
COLO 205 colon = system: COLO 205 colon
MDA-MB-231 breast = system: MDA-MB-231 breast
MCF7 breast = system: MCF7 breast
MALME-3M melanoma = system: MALME-3M melanoma
SK-MEL-2 melanoma = system: SK-MEL-2 melanoma
MDA-MB-435 = system: MDA-MB-435
UACC-257 melanoma = system: UACC-257 melanoma
MOLT-4 leukemia = system: MOLT-4 leukemia
HCT-116 colon = system: HCT-116 colon
NCI-H522 lung = system: NCI-H522 lung
NCI-H23 lung = system: NCI-H23 lung
HCT-15 colon = system: HCT-15 colon
NCI-H460 lung = system: NCI-H460 lung
NCI-H226 lung = system: NCI-H226 lung
OVCAR-4 ovarian = system: OVCAR-4 ovarian
T-47D breast = system: T-47D breast
CCRF-CEM leukemia = system: CCRF-CEM leukemia
HS 578T breast = system: HS 578T breast
OVCAR-3 ovarian = system: OVCAR-3 ovarian
A549 NSCLC = system: A549 NSCLC
UACC-62 melanoma = system: UACC-62 melanoma
A498 renal = system: A498 renal
786-0 renal = system: 786-0 renal
SN12C renal = system: SN12C renal
OVCAR-5 ovarian = system: OVCAR-5 ovarian
SNB-19 CNS = system: SNB-19 CNS
CAKI-1 renal = system: CAKI-1 renal
HL-60(TB) leukemia = system: HL-60(TB) leukemia
OVCAR-8 ovarian = system: OVCAR-8 ovarian
IGROV1 ovarian = system: IGROV1 ovarian
K-562 leukemia = system: K-562 leukemia
PC-3 prostate = system: PC-3 prostate

CSc1ccc(C2=C(c3ccccc3)C(=O)OC2)cc1
GI50 (KM12 colon): 356 nM
TGI (KM12 colon): > 77000 nM
GI50 (SF-295 CNS): 597 nM
TGI (SF-295 CNS): 1980 nM
GI50 (SK-OV-3 ovarian): 1510 nM
TGI (SK-OV-3 ovarian): > 100000 nM
GI50 (HOP-92 NSCLC): 2130 nM
TGI (HOP-92 NSCLC): 44700 nM
GI50 (BT-549 breast): 16200 nM
TGI (BT-549 breast): > 100000 nM
GI50 (SNB-75 CNS): 5670 nM
TGI (SNB-75 CNS): > 100000 nM
GI50 (NCI/ADR-RES ovarian): 350 nM
TGI (NCI/ADR-RES ovarian): > 34900 nM
GI50 (HCC-2998 colon): 309 nM
TGI (HCC-2998 colon): 18900 nM
GI50 (SK-MEL-28 melanoma): 6690 nM
TGI (SK-MEL-28 melanoma): > 100000 nM
GI50 (HOP-62 NSCLC): 1960 nM
TGI (HOP-62 NSCLC): > 70000 nM
GI50 (SF-539 CNS): 1490 nM
TGI (SF-539 CNS): 12300 nM
GI50 (UO-31 renal): 2660 nM
TGI (UO-31 renal): > 80300 nM
GI50 (SK-MEL-5 melanoma): 732 nM
TGI (SK-MEL-5 melanoma): 3560 nM
GI50 (DU-145 prostate): 4490 nM
TGI (DU-145 prostate): > 100000 nM
GI50 (ACHN renal): 517 nM
TGI (ACHN renal): 33400 nM
GI50 (U251 CNS): 329 nM
TGI (U251 CNS): 7050 nM
GI50 (HT29 colon): 239 nM
TGI (HT29 colon): > 100000 nM
GI50 (M14 melanoma): 483 nM
TGI (M14 melanoma): > 46100 nM
GI50 (SF-268 CNS): 3020 nM
TGI (SF-268 CNS): > 64700 nM
GI50 (SW-620 colon): 1000 nM
TGI (SW-620 colon): > 20100 nM
GI50 (LOX IMVI melanoma): 385 nM
TGI (LOX IMVI melanoma): 38700 nM
GI50 (TK-10 renal): 1490 nM
TGI (TK-10 renal): 18400 nM
GI50 (RXF 393 renal): 1870 nM
GI50 (EKVX NSCLC): 5760 nM
TGI (EKVX NSCLC): > 100000 nM
GI50 (COLO 205 colon): 763 nM
TGI (COLO 205 colon): > 100000 nM
GI50 (MDA-MB-231 breast): 425 nM
TGI (MDA-MB-231 breast): 20900 nM
GI50 (MCF7 breast): 810 nM
GI50 (MALME-3M melanoma): 3290 nM
TGI (MALME-3M melanoma): 64100 nM
GI50 (SK-MEL-2 melanoma): 1640 nM
TGI (SK-MEL-2 melanoma): > 100000 nM
GI50 (MDA-MB-435): 92.3 nM
TGI (MDA-MB-435): 364 nM
TGI (UACC-257 melanoma): > 100000 nM
GI50 (MOLT-4 leukemia): 174 nM
TGI (MOLT-4 leukemia): > 100000 nM
GI50 (HCT-116 colon): 637 nM
TGI (HCT-116 colon): 61700 nM
GI50 (NCI-H522 lung): 619 nM
TGI (NCI-H522 lung): 2450 nM
GI50 (NCI-H23 lung): 3780 nM
TGI (NCI-H23 lung): > 41100 nM
GI50 (HCT-15 colon): 202 nM
TGI (HCT-15 colon): 3460 nM
GI50 (NCI-H460 lung): 1290 nM
TGI (NCI-H460 lung): > 34800 nM
GI50 (NCI-H226 lung): 4300 nM
TGI (NCI-H226 lung): 53300 nM
GI50 (OVCAR-4 ovarian): 21200 nM
TGI (OVCAR-4 ovarian): > 100000 nM
GI50 (T-47D breast): 1220 nM
TGI (T-47D breast): > 100000 nM
GI50 (CCRF-CEM leukemia): 508 nM
TGI (CCRF-CEM leukemia): 2850 nM
GI50 (HS 578T breast): 219 nM
TGI (HS 578T breast): 1220 nM
GI50 (OVCAR-3 ovarian): 188 nM
TGI (OVCAR-3 ovarian): 568 nM
GI50 (A549 NSCLC): 677 nM
TGI (A549 NSCLC): > 100000 nM
GI50 (UACC-62 melanoma): 715 nM
TGI (UACC-62 melanoma): 53800 nM
GI50 (A498 renal): 3130 nM
TGI (A498 renal): 13900 nM
GI50 (786-0 renal): 1210 nM
TGI (786-0 renal): 19700 nM
GI50 (SN12C renal): 7680 nM
TGI (SN12C renal): > 100000 nM
GI50 (OVCAR-5 ovarian): 5180 nM
TGI (OVCAR-5 ovarian): > 100000 nM
GI50 (SNB-19 CNS): 804 nM
TGI (SNB-19 CNS): > 100000 nM
GI50 (CAKI-1 renal): 409 nM
TGI (CAKI-1 renal): 10100 nM
GI50 (HL-60(TB) leukemia): 350 nM
TGI (HL-60(TB) leukemia): 2070 nM
GI50 (OVCAR-8 ovarian): 639 nM
TGI (OVCAR-8 ovarian): > 100000 nM
GI50 (IGROV1 ovarian): 2180 nM
TGI (IGROV1 ovarian): > 63900 nM
GI50 (K-562 leukemia): 101 nM
TGI (K-562 leukemia): > 100000 nM
GI50 (PC-3 prostate): 884 nM
TGI (PC-3 prostate): 21100 nM
